5 substances from ChEMBL document CHEMBL5126613, “Novel CA(1-7)M(2-9) Analogs: Synthesis, Characterization, and Antibacterial Evaluation” (ACS Med Chem Lett, 2022) can be followed below.

Broadly, the MIC is the lowest concentration found to suppress growth. One may read the HC50 as the concentration giving 50% haemolysis.

A value given as a limit tells only on which side of the number the result lay.

Data set [1] in a line: Selectivity index, ratio of HC50 for hemolytic activity in sheep RBC assessed as 50% hemolysis incubated for 30 mins by microplate reader method to MIC for antibacterial activity against Bacillus subtilis ATCC 6051 assessed as reduction in bacterial growth measured for 18 to 20 hrs by microbroth dilution method. The class given is toxicity. The following applies: sheep red blood cells (erythrocytes), read-out: Selectivity Index. (In broth dilution the organism is exposed to a series of concentrations in liquid medium.)

The next data set has as its system Pseudomonas aeruginosa. Nature of the data set: Antibacterial activity against Pseudomonas aeruginosa ATCC 27853 assessed as reduction in bacterial growth measured for 18 to 20 hrs by microbroth dilution method. In kind it is functional. The following applies: time 18-20 hrs.
The next data set deals with Escherichia coli. The experiment in a line: Antibacterial activity against Escherichia coli ATCC 25922 assessed as reduction in bacterial growth measured for 18 to 20 hrs by microbroth dilution method. The class given is functional. The following applies: time 18-20 hrs.
Data set [2] can be described thus: Selectivity index, ratio of HC50 for hemolytic activity in sheep RBC assessed as 50% hemolysis incubated for 30 mins by microplate reader method to MIC for antibacterial activity against Pseudomonas aeruginosa ATCC 27853 assessed as reduction in bacterial growth measured for 18 to 20 hrs by microbroth dilution method. The class given is toxicity. The following applies: sheep red blood cells (erythrocytes), read-out: Selectivity Index.

In the next data set the test system is Staphylococcus aureus. The experiment in a line: Antibacterial activity against Staphylococcus aureus ATCC 29213 assessed as reduction in bacterial growth measured for 18 to 20 hrs by microbroth dilution method. The class given is functional. The note with it: time 18-20 hrs.
Data set [3] can be described thus: Hemolytic activity in sheep RBC assessed as hemolysis incubated for 30 mins by microplate reader method. In kind it is toxicity, cell-based, Ovis aries, Erythrocyte. The following applies: sheep red blood cells (erythrocytes), read-out: Activity.
The nature of data set [4]: Selectivity index, ratio of HC50 for hemolytic activity in sheep RBC assessed as 50% hemolysis incubated for 30 mins by microplate reader method to MIC for antibacterial activity against Escherichia coli ATCC 25922 assessed as reduction in bacterial growth measured for 18 to 20 hrs by microbroth dilution method. The class given is toxicity. The following applies: sheep red blood cells (erythrocytes), read-out: Selectivity Index.

In a further data set the test system is Bacillus subtilis. Nature of the data set: Antibacterial activity against Bacillus subtilis ATCC 6051 assessed as reduction in bacterial growth measured for 18 to 20 hrs by microbroth dilution method. The class given is functional. The note with it: time 18-20 hrs.
Data set [5] is described as follows: Hemolytic activity in sheep RBC assessed as 50% hemolysis incubated for 30 mins by microplate reader method. In kind it is toxicity, cell-based, Ovis aries, Erythrocyte. The following applies: sheep red blood cells (erythrocytes).
Data set [6] is described as follows: Selectivity index, ratio of HC50 for hemolytic activity in sheep RBC assessed as 50% hemolysis incubated for 30 mins by microplate reader method to MIC for antibacterial activity against Staphylococcus aureus ATCC 29213 assessed as reduction in bacterial growth measured for 18 to 20 hrs by microbroth dilution method. The class given is toxicity. The following applies: sheep red blood cells (erythrocytes), read-out: Selectivity Index.

Another data set deals with Erythrocyte. Nature of the data set: Hemolytic activity in sheep RBC assessed as hemolysis at 1000 ug/ml incubated for 30 mins by microplate reader method. The note with it: 0.5 h, dose 1000 µg/ml. The class given is toxicity, cell-based, Ovis aries.

Consider H-KWKLFKRIGAVLKVL-NH2, for which the selectivity ratio at 30 min is greater than 16 in data set [1], greater than 125 in [2], greater than 250 in data set [4] and greater than 250 in data set [6]. For the same substance, the minimum inhibitory concentration (MIC) in the data set with Pseudomonas aeruginosa was 8 µg/mL; with Escherichia coli it was 4 µg/mL; with Staphylococcus aureus it was 4 µg/mL; with Bacillus subtilis, 64 µg/mL. Also, in data set [3], the hemolysis at 0.5 h was determined as 10%. In [5], the 50% haemolytic concentration (HC50) at 0.5 h was greater than 1000 µg/mL.

H-KWKLFRKIGAVLKVL-NH2: the selectivity ratio at 30 min came to 15 in data set [1], 117 in [2], 234 in data set [4] and 234 in data set [6]. Moreover, the minimum inhibitory concentration (MIC) in the data set with Pseudomonas aeruginosa stood at 8 µg/mL; in the data set on Escherichia coli, 4 µg/mL; with Staphylococcus aureus, 4 µg/mL; with Bacillus subtilis, 64 µg/mL. The hemolysis at 0.5 h in [3] was 10%. Besides, in data set [5], the HC50 at 0.5 h stood at 935 µg/mL.

Regarding H-KWRLFKKIGAVLKVL-NH2, the selectivity ratio at 30 min in data set [1] was determined as 23; in data set [2], 94; in data set [4], 188; in data set [6], 188. Further, the minimal inhibitory concentration (MIC) was found to be 8 µg/mL in the data set on Pseudomonas aeruginosa, 4 µg/mL with Escherichia coli, 4 µg/mL with Staphylococcus aureus and 32 µg/mL in the data set on Bacillus subtilis. Besides, the hemolysis at 0.5 h in data set [3] was found to be 10%. For the same substance, the 50% haemolytic concentration (HC50) at 0.5 h in data set [5] turned out to be 750 µg/mL.

As to H-RWKLFKKIGAVLKVL-NH2, the selectivity ratio at 30 min came to 14 in data set [1], 56 in [2], 113 in [4] and 113 in data set [6]. The minimal inhibitory concentration (MIC) in the data set on Pseudomonas aeruginosa amounted to 8 µg/mL; in the data set with Escherichia coli it was 4 µg/mL; in the data set on Staphylococcus aureus, 4 µg/mL; in the data set on Bacillus subtilis it was 32 µg/mL. For the same substance, in data set [3], the hemolysis at 0.5 h was 10%. For the same substance, in [5], the HC50 at 0.5 h is 450 µg/mL.

As for H-RWRLFRRIGAVLRVL-NH2, the selectivity ratio at 30 min in data set [1] amounted to 14; in data set [2] it was 58; in data set [4] it was 58; in data set [6] it was 29. Moreover, the MIC in the data set on Pseudomonas aeruginosa is 4 µg/mL; in the data set with Escherichia coli it was 4 µg/mL; with Staphylococcus aureus it was 8 µg/mL; with Bacillus subtilis, 16 µg/mL. Also, the Activity result in the data set with Erythrocyte is “Toxic”. Also, in data set [5], the 50% haemolytic concentration (HC50) at 0.5 h came to 230 µg/mL.
